Legend:
GLUTag cells = test: GLP-1 release assay in GLUTag cells; type: cell-based, murine; details: for GLP-1 release, low glucose medium: 2.8 mM glucose
Method: (§1) HEK293 cells stably transfected with a human GPR119 vector and a cAMP response element-driven luciferase reporter plasmid (HEK293-hGPR119 cells) and HEK293 cells transfected only with a cAMP response element-driven luciferase reporter plasmid (control HEK293 cells) were cultured in Dulbecco’s modified Eagle medium (DMEM) (Invitrogen, Carlsbad, CA, USA) supplemented with 10% fetal bovine serum (FBS), 4.5 g/l glucose, 100 units/ml penicillin and 100 µg/ml streptomycin at 37°C in 5% CO2. MIN6 cells were maintained in DMEM containing 15% FBS, 4.5 g/l glucose, 100 units/ml penicillin and 100 µg/ml streptomycin at 37°C in 5% CO2. GLUTag cells were maintained in DMEM containing 10% FBS, 1 g/l glucose, 100 units/ml penicillin and 100 µg/ml streptomycin at 37°C in 5% CO2.
GLUTag cells were plated in 24-well plates on day 1 in low glucose DMEM supplemented with 10% FBS. Culture medium was replaced with DMEM (2.8 mM glucose) supplemented with 10% FBS 24 h before analysis of GLP-1 release. On the day of experiment, cells were washed twice with PBS and incubated with different compounds at desired concentrations in serum-free DMEM with 2.8 mM or 16.8 mM glucose for 1 h at 37°C and 5% CO2. The supernatants were collected by centrifugation for 3 min. GLP-1 in the supernatant was detected by a GLP-1 ELISA kit (Linco Research Laboratory).
(§2) MIN6 and GLUTag cells were cultured as described above. siRNA targeting murine GPR119 coding sequences (Forward: 5′-[…]-3′, Reverse: 5′-[…]-3′) was purchased from GenePharma company (Shanghai, China). Transfection was performed using siRNA and Lipofectamine 2000 (Invitrogen, Burlington, ON, Canada) as instructed by the manufacturer. After 36 h, knockdown efficiency of siRNA was quantified by real-time RT-PCR, and cells were used for secretion experiments.

human GPR119 [1] = target: T1, human GPR119 (Homo sapiens, UniProt Q8TDV5); test: Reporter gene assay (CRE-luciferase) in HEK293-hGPR119 cells; type: cell-based; details: for allosteric modulation of OEA potency: compound added to OEA concentration response
T1 construct: expressed in transfected cells
T1 sequence (Q8TDV5 1-335): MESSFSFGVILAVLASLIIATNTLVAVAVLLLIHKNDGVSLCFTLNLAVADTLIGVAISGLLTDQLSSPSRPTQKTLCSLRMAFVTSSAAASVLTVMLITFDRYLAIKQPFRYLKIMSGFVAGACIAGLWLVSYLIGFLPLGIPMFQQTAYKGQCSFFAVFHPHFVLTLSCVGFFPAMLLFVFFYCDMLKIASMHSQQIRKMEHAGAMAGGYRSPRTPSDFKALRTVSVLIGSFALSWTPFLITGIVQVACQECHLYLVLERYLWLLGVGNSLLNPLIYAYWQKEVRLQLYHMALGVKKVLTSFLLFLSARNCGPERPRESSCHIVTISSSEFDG
Method: as §1
HEK293-hGPR119 cells or control HEK293 cells were seeded onto 384-well plates with a density of 16,000 cells per well. At the time of assaying, AR-231453 or test compounds dissolved in DMSO were added. After 42 h of incubation at 37°C and 5% CO2 in a cell culture incubator, cells were lysed and quantified for luciferase activity using the Steady-Glo luciferase assay system (Promega, Madison, WI, USA) according to manufacturer’s protocol. For allosteric activity studies, test compounds were 5-fold serially diluted and added to AR-231453 or OEA concentration response reaction. Luciferase signals were determined with EnVision (PerkinElmer, Boston, MA, USA).

human GPR119 [2] = target: T1, human GPR119; test: cAMP accumulation assay (HTRF) in HEK293-hGPR119 cells; type: cell-based
Method: as §1
cAMP accumulation was measured using HTRF-cAMP dynamic kit (Cisbio International, Gif sur Yvette Cedex, France) according to manufacturer's instructions. Briefly, HEK293-hGPR119 cells were suspended in assay buffer (DMEM, 1 mM 3-isobutyl-1-methylxanthine) and transferred to 384-well microplates (Greiner Bio-One, Frickenhausen, Germany) at a density of 16,000 cells/well. Plates were incubated for 30 min at 37°C before adding test compounds. After treatment for 30 min at 37°C, the reactions were stopped by addition of lysis buffer containing HTRF reagents. Plates were then incubated for 60 min at room temperature, and time-resolved FRET signals were measured after excitation at 320 nm. Both the emission signal from the europium cryptate-labeled anti-cAMP antibody (620 nm) and the FRET signal resulting from the labeled cAMP-d2 (665 nm) were detected by EnVision (PerkinElmer).

MIN6 cells = test: Insulin secretion assay in MIN6 cells; type: cell-based, mouse; details: for glucose-stimulated insulin secretion vs DMSO control: 16.8 mM glucose, 1 h, MW1219 at 15 µM and 50 µM (P<0.05), OEA at 10 µM (P<0.01)
Method: as §1
Insulin-secreting MIN6 cells were plated in 96-well plates (20,000 cells per well) for 2 days. On the day of experiment, culture medium was aspirated and cells were washed twice with KRBH buffer. Cells were then placed at 37°C for 30 min in KRBH containing 2.8 mM glucose. Test compounds were dissolved in either 2.8 or 16.8 mM glucose medium and added to cells for 1 h. The supernatants were collected by centrifugation at 800×g for insulin measurements. Insulin content in the supernatant was determined using an insulin ELISA kit from Linco Research Laboratory (Billerica, MA, USA).
as §2

db/db mice [3] = test: Chronic oral treatment of diabetic db/db mice; type: in vivo; details: for inhibition of glycemic excursion, oral glucose tolerance test, vs vehicle: glucose 3 g/kg; for food intake and body weight: 6-week once-daily oral treatment
Method: Animal experimentation was conducted in accordance with the regulations adopted by the Animal Care and Use Committee, Shanghai Institute of Materia Medica, Chinese Academy of Sciences (approval number: SIMM-2012-07-WMW-04). Male C57BL/KsJ db/db mice (Model Animal Research Center of Nanjing University, Nanjing, China) were housed in a temperature-controlled room (22±2°C), with a light/dark cycle of 12 h. At 6 weeks of age, mice were randomly assigned to chronic treatments. The experimental groups and respective doses of compounds were as follows: (1) 0.5% w/v sodium carboxyl methyl cellulose (CMC), (2) 10 mg/kg AR-231453, (3) 1 mg/kg sitagliptin (Beijing Huikang Boyuan Chemical Technology Co., Ltd., Beijing, China), (4) 10 mg/kg AR-231453 plus 1 mg/kg sitagliptin, (5) 100 mg/kg MW1219, and (6) 100 mg/kg MW1219 plus 1 mg/kg sitagliptin. Each regimen was administered once daily by oral gavaging for 6 weeks. Body weight and food intake were recorded every other day and fasting glucose levels measured every week. Oral glucose tolerance test was performed in overnight-fasting mice every other week. After six weeks of treatment, HbA1c were quantified, plasma insulin and GLP-1 contents were measured using respective ELISA kit. For oral glucose tolerance test, overnight fasting mice (n = 6/treatment) were given compounds orally at desired doses and after 30 min, an oral glucose bonus (3 g/kg) was delivered. Plasma glucose levels were determined at desired time points over a 2-h period using blood collected from the tail vein. For circulating GLP-1 analysis, compounds were administered orally to fasting animals followed by an oral glucose bolus (3 g/kg) 30 min later. Blood was drawn 2 min thereafter in Eppendorf tubes containing EDTA and a DPP-4 inhibitor. Plasma samples were obtained via centrifugation and assayed for active GLP-1 by the ELISA kit. Blood was collected again after 20 min to determine insulin levels.

control HEK293 cells [4] = test: cAMP accumulation assay in control HEK293 cells; type: cell-based
Method: as §1
cAMP accumulation was measured using HTRF-cAMP dynamic kit (Cisbio International, Gif sur Yvette Cedex, France) according to manufacturer's instructions. […] Plates were then incubated for 60 min at room temperature, and time-resolved FRET signals were measured after excitation at 320 nm. Both the emission signal from the europium cryptate-labeled anti-cAMP antibody (620 nm) and the FRET signal resulting from the labeled cAMP-d2 (665 nm) were detected by EnVision (PerkinElmer).

control HEK293 cells [5] = test: Reporter gene assay in control HEK293 cells (no GPR119); type: cell-based
Method: as §1
HEK293-hGPR119 cells or control HEK293 cells were seeded onto 384-well plates with a density of 16,000 cells per well. At the time of assaying, AR-231453 or test compounds dissolved in DMSO were added. After 42 h of incubation at 37°C and 5% CO2 in a cell culture incubator, cells were lysed and quantified for luciferase activity using the Steady-Glo luciferase assay system (Promega, Madison, WI, USA) according to manufacturer’s protocol. […] Luciferase signals were determined with EnVision (PerkinElmer, Boston, MA, USA).

db/db mice [6] = system: db/db mice; set-up: method as in the literature (reference number not given); details: ref the literature (reference number not given); cited from earlier work
[7] = HEK293-hGPR119 cells, 42 h incubation, read-out: EC50, luciferase expression
[8] = MW1219 0 μM (Table S3), read-out: EC50 of OEA
[9] = in presence of MW1219 1 μM, read-out: EC50 of OEA
[10] = in presence of MW1219 10 μM, read-out: EC50 of OEA
[11] = 100 mg/kg MW1219 plus 1 mg/kg sitagliptin, oral, once daily, 6 weeks
[12] = MW1219 100 mg/kg, sitagliptin 1 mg/kg
[13] = reporter gene and cAMP accumulation assays

CCCCCCCC/C=C\CCCCCCCC(=O)NCCO [OEA, oleoylethanolamide]
GLP-1 release, low glucose medium (GLUTag cells; 1 h): Neither MW1219 nor OEA exhibited any effect
efficacy on GPR119 (human GPR119 [1]; 1 µM OEA, HTS luciferase assay): 15%
EC50 (human GPR119 [1]; AR-231453 0 nM (Table S1), read-out: EC50 of OEA): 2.81 ± 0.21 µM
EC50 (human GPR119 [1]; [7]): 2.78 ± 0.18 µM
EC50 (human GPR119 [1]; [8]): 2.89 ± 0.61 µM
EC50 (human GPR119 [1]; [9]): 3.09 ± 0.68 µM
EC50 (human GPR119 [1]; [10]): 2.56 ± 0.47 µM
allosteric modulation of AR-231453 potency (human GPR119 [1]; reporter gene and cAMP accumulation assays, compound added to AR-231453 concentration response): did not alter the potency of AR-231453
EC50 (human GPR119 [2]; [8]): 1.69 ± 0.17 µM
EC50 (human GPR119 [2]; [9]): 1.83 ± 0.24 µM
EC50 (human GPR119 [2]; [10]): 1.41 ± 0.11 µM
glucose-stimulated insulin secretion vs DMSO control (MIN6 cells): elevated insulin significantly

CCOC(=O)c1ccc2oc3ccc(O)cc3c(=O)c2c1 [MW1219]
circulating GLP-1 levels (db/db mice [3]; 100 mg/kg MW1219, 6 weeks, 2 min after oral glucose 3 g/kg): not elevated
insulin response to a glucose bolus (db/db mice [3]; 100 mg/kg MW1219, 6 weeks, 20 min after oral glucose 3 g/kg): notably more pronounced than that of controls
inhibition of glycemic excursion, oral glucose tolerance test, vs vehicle (db/db mice [3]; 100 mg/kg MW1219, after 6 weeks, P<0.05): 8.6%
reduction of fasting blood glucose vs control (db/db mice [3]; 100 mg/kg MW1219, oral, once daily, 6 weeks): 16%
HbA1c decrease compared with the control (db/db mice [3]; 100 mg/kg MW1219, oral, once daily, 6 weeks, P<0.05): 0.67%
inhibition of glycemic excursion, oral glucose tolerance test, vs vehicle (db/db mice [3]; 100 mg/kg MW1219 plus 1 mg/kg sitagliptin, after 6 weeks, P<0.001): 18.6%
HbA1c change (db/db mice [3]; [11]): no difference
fasting blood glucose vs mice that received sitagliptin alone (db/db mice [3]; [11]): significantly lower
reduction of fasting blood glucose vs control (db/db mice [3]; [11]): 29%
food intake and body weight (db/db mice [3]; [12]): neither food intake inhibition nor weight loss
fasting plasma glucose levels and glucose tolerance, pilot dose-response studies (db/db mice [3]; MW1219 100 mg/kg, data not shown): improved both fasting plasma glucose levels and glucose tolerance
GLP-1 release after GPR119 siRNA knockdown (GLUTag cells; 20 µM and 50 µM MW1219, siRNA-treated GLUTag cells): indistinguishable from the medium control
GLP-1 release, low glucose medium (GLUTag cells; 1 h): Neither MW1219 nor OEA exhibited any effect
GLP-1 released to supernatant, high glucose (GLUTag cells; 16.8 mM glucose, 1 h): elevated dose-dependently
efficacy relative to forskolin in the reporter gene assay (human GPR119 [1]; HEK293-hGPR119 cells): same level of efficacy as forskolin
EC50 (human GPR119 [1]; [7]): 0.96 ± 0.08 µM
allosteric modulation of OEA potency (human GPR119 [1]; [13]): not PAM for OEA
efficacy, cAMP accumulation, relative to forskolin (human GPR119 [2]; 50 µM MW1219, HEK293-hGPR119 cells): about 40%
cAMP increase in control cells (control HEK293 cells [4]): had no influence
activity on luciferase expression in the absence of GPR119 (control HEK293 cells [5]): did not show any activity
efficacy compared to forskolin (control HEK293 cells [5]; Figure 2C): 10%
insulin secretion after GPR119 siRNA knockdown (MIN6 cells; 15 µM MW1219, GPR119 siRNA-treated MIN6 cells): suppressed by siRNA
insulin release under low glucose (MIN6 cells; 2.8 mM glucose): no effect
glucose-stimulated insulin secretion vs DMSO control (MIN6 cells): elevated insulin significantly

N[C@@H](CC(=O)N1CCn2c(nnc2C(F)(F)F)C1)Cc1cc(F)c(F)cc1F [sitagliptin, reference compound]
HbA1c change (db/db mice [3]; 1 mg/kg sitagliptin, oral, once daily, 6 weeks): no difference
food intake and body weight (db/db mice [3]; [12]): failed to suppress food intake and decrease body weight
plasma GLP-1 levels (db/db mice [3]; sitagliptin 1 mg/kg): raised plasma GLP-1 levels

CC(C)c1noc(C2CCN(c3ncnc(Nc4ccc(S(C)(=O)=O)cc4F)c3[N+](=O)[O-])CC2)n1 [AR-231453]
feeding and weight gain (db/db mice [3]; AR-231453 in combination with sitagliptin): did not induce noticeable effects
allosteric modulation of OEA potency (human GPR119 [1]; [13]): without affecting its potency
EC50 (human GPR119 [2]; OEA 0 μM (Table S2), read-out: EC50 of AR-231453): 0.00119 ± 0.00016 µM
reduction of food intake (db/db mice [6]): only at very high doses

From PMC3660563, “High-Throughput Screening for GPR119 Modulators Identifies a Novel Compound with Anti-Diabetic Efficacy in db/db Mice” (PLoS ONE, 2013)
